Assay results published in patent US20050036962A1, “Compositions and method for protecting skin from UV induced immunosuppression and skin damage” (Novogen Research Pty. Ltd., priority 1997, published 2005).

Columns and labels:
[1] = tested on: Hairless albino Sh:HR-1 mice; experiment: CHS reaction to oxazolone after UVB irradiation, equol/glucan lotions, Example 4; assay type: in vivo, mouse; settings: for % Suppression of CHS: 1 MED (UVB) for 3 days, equol 2.5 uM, glucan 20% in base lotion, ears measured day 15; for decreasing percentage suppression of hypersensitivity and skin fold thickness (in words): compared to the control groups
Protocol: The CHS reaction was carried out as in Example 2. Hairless albino Sh:HR-1 mice were divided into eight treatment groups as shown: • 1. base lotion+MED (UVB) for […] • 2. glucan (20%) in base lotion+1 MED (UVB) for 3 days • 3. Equol (2.5 uM) in base lotion+1 MED (UVB) for 3 days • 4. Equol (2.5 uM)+glucan (20%) in base lotion+1 MED (UVB) for 3 days • 5. base lotion and no irradiation for three days (Control) • 6. glucan (20%) in base lotion and no irradiation for three days (Control) • 7. Equol (2.5 uM) in base lotion and no irradiation for three days (Control) • 8. Equol (2.5 uM)+glucan (20%) in base lotion and no irradiation for three days (Control)
On days 7 and 8 the mice were sensitised with 2% oxazolone in alcohol (100 ul/mouse). On day 14, the ears were challenged with 2% oxazolone (20 ul/mouse). On day 15, the ears were measured for skin fold thickness and suppression of […] hypersensitivity.

[2] = tested on: Hairless albino Sh:HR-1 mice; experiment: Mid-dorsal skinfold thickness (erythema/oedema) after UV irradiation, Example 2; assay type: in vivo, mouse; settings: for average skin fold increase / negative average skin fold increase: seven days after treatment; for average skin fold increase: one unit = 0.001 in, test lotion A; for erythema/oedema (in words): measured at day four and day seven; for negative average skin fold increase: given as a negative increase, substantially no increase in skin fold thickness
Protocol: (§1) The CHS reaction was carried out according to the protocol of Reeve et al, Immunology, 78:99-104 (1993). Hairless albino Sh:HR-1 mice were divided into two treatment groups. The first treatment group designated group 1 was not subject to UV irradiation, and received either 0.2 ml of test lotion “A” or test lotion ‘B’ painted on to the dorsal skin on four consecutive days (that is, 4 μmol/mouse, or approximately 0.1 μmol/cm^2). The second treatment group, group 2, were UV irradiated with a minimal erythemal dose of UV light which simulates the toxic effect of sunlight on the skin. After each daily UV treatment 0.2 ml of treatment solution was applied to the dorsal skin as for treatment group 1. Mid-dorsal skinfold thickness was measured every twenty four hours to indicate erythema oedema. CHS to oxazolone was induced on abdominal skin seven days after the first treatment followed by challenge on the ears on day 15, and average ear swelling was determined as a measure of immune response.
Erythema/oedema was measured at day four and day seven of the treatment groups. […] For example, at seven days after treatment for base lotion “A” average skin fold thickness was six units (that is 0.006 in), for the daidzein containing lotion average skin fold increase was seven units, and for tetrahydrodaidzein average skin fold thickness was five units. In contrast, for equol, genistein, dehydroequol and ODMA there was a negative average skin fold increase of approximately 0.2, which corresponds to substantially no increase in skin fold thickness.

[3] = tested on: Hairless albino Sh:HR-1 mice; experiment: Contact hypersensitivity (CHS) reaction to oxazolone after UV irradiation, Example 2; assay type: in vivo, mouse; settings: for % Suppression of CHS: UV-irradiated vs non-UV group, lotion 20 μM compound (glucan 10% w/w in lotion B; clover extract 0.5% w/w), topical after each daily UV; for prevention/amelioration of UV induced immunosuppression (in words): topical lotion after UV, CHS model
Excerpt: O'Dell et al (1980 Arch. Dermatol, 116, 559-561) have shown that sun-exposed skin areas on humans are immunologically impaired according to non-exposed skin. A standard model for testing immunosuppression, that is a model with reference to human immunosuppression, is the hairless mouse. A standard test in the hairless mouse model is the contact hypersensitivity (CHS) reaction to an immune irritant such as oxazolone (Asherson and Ptak, Immunology, (1968) 15:405-416). The compound oxazolone induces a vigorous immune response in the hairless mouse which may be measured by ear swelling. Immune suppression by UV light or other agents can be readily tested in the model. See for example Kondo, S, McKenzie, R. C., Sauder, D. N., J. Invest. Dermatol., 103:811-814; Reeve et al, Cancer Letts., 108:271-279 (1996); and Reeve et al, J. Invest. Dermatol., 103:801-806 (1994). As will be shown in the non-limiting examples which follow, compositions comprising compounds of the Formula (I) were active in the treatment/prevention/amelioration of UV induced immunosuppression in the hairless mouse model, which as discussed above is directly referable to the situation in human skin, for example, Yoshikawa et al, J. Invest. Dermatol., 95:530-536, (1990).
The CHS reaction in mice is a standard model for immunosuppression and is a representative model for human immunosuppression (Yoshikawa et al, Invest. Dermatol., 95:530-536 (1990)).
as §1
Genistein, daidzein, equol, tetrahydrodaidzein, ODMA, dehydroequol and clover extract were tested in this experiment in test lotion “A”. Equol, genistein and clover extract were also tested in tes lotion ‘B’. The results expressed below are given as a percentage of suppression of CHS measured with reference to the non-UV exposed treatment group 1, which is induced by UV exposure.

[4] = tested on: Human subjects; experiment: Erythema intensity at UV-irradiated skin sites on the back, post-UV topical lotion, Example 3; assay type: in vivo; settings: UV + lotion with 100 μM equol
Protocol: Tests were performed at the Australian Photobiology Testing Facility at the University of Sydney. Human subjects were tested in a controlled solarium. A grid was established using reference coordinate points on the back of each subject, thereby providing a series of treatment sites on the back of each patient where the erythema-reducing potential of compositions according to the invention could be tested.
Compounds of the Formula (I) were dissolved in DMSO and incorporated into base lotion “A” to contain 100 μM of active ingredient, and 0.5% DMSO.
Topical applications were made to the back of the patient within the treatment grid which was established to provide a series of sites for UV irradiation, and subsequent application of compositions. Topical application consisted of 2 mg/cm^2 lotion applied firmly, followed by a second 2 mg/cm^2 applied but not rubbed in. Each topical treatment was therefore 0.4 nmols/cm^2 compound in the Formula (I).
The treatment procedure was as follows. On the first day of treatment a minimum erythemal dose of UV (MED) was established for each subject, this being the minimum degree of UV light which on visual determination produces a reddening of the skin. […] The first treatment day was a Monday. Subsequent treatments were as follows:
Expose 3×3 skin sites to 0.75 MED UV.
Immediately, at four hours and at six hours post-UV, • 1 apply nil to three sites • 2 apply topical base lotion to three sites • 3 apply topical equol lotion to three sites according to technique above. Wednesday
Assess erythema (none visible as expected).
Re-expose same 3×3 skin sites to 0.75 MED UV.
Immediately, at four hours and at six hours post-UV, apply topical lotions as above.
Assess erythema visually by ranking the colour intensity of the 3×3 skin sites.
Re-expose same 3×3 skin sites to one MED UV.
Topical applications as before

Row | Compound | % Suppression of CHS ([3]; 18 hours of ear challenge) | % Suppression of CHS ([3]; 21 hours of ear challenge) | prevention/amelioration of UV induced immunosuppression (in words) [3] | negative average skin fold increase [2] | other results
1 | β-(1,3)(1,6)-glucan [Glucan only] | – | – | – | – | % Suppression of CHS [1]: 4.5%; decreasing percentage suppression of hypersensitivity and skin fold thickness (in words) [1]: effective
2 | Oc1ccc(C2COc3cc(O)ccc3C2O)cc1 (stereo not drawn) [tetrahydrodaidzein] | 33% | 31% | did not ameliorate | – | average skin fold increase [2]: five
3 | O=c1c(-c2ccc(O)cc2)coc2cc(O)cc(O)c12 [Genistein, genistein] | 14% | 13% | significant activity | approximately 0.2 | erythema/oedema (in words) [2]: suppressed erythema/oedema
4 | CC(C(=O)c1ccc(O)cc1O)c1ccc(O)cc1 (stereo not drawn) [ODMA, O-desmethyl-angolensin] | – | – | – | approximately 0.2 | –
5 | Oc1ccc([C@H]2COc3cc(O)ccc3C2)cc1 [Equol, equol] | 12% | 5% | significant activity | approximately 0.2 | erythema/oedema (in words) [2]: suppressed erythema/oedema; Average erythema intensity (n = 3) ([4]; 48 hours, 0.4 nmols/cm^2 per application): 0.21; Average erythema intensity (n = 3) ([4]; 52 hours): 0.21; Average erythema intensity (n = 3) ([4]; 55.5 hours): 0.67; Average erythema intensity (n = 3) ([4]; 71 hours): 0.67; Average erythema intensity (n = 3) ([4]; 75 hours): 0.38; Average erythema intensity (n = 3) ([4]; 77 hours): 0.54; % Suppression of CHS [1]: 6%; decreasing percentage suppression of hypersensitivity and skin fold thickness (in words) [1]: effective
6 | Oc1ccc(C2=Cc3ccc(O)cc3OC2)cc1 [dehydroequol] | 10% | 4% | significant activity | approximately 0.2 | –
7 | O=c1c(-c2ccc(O)cc2)coc2cc(O)ccc12 [Daidzein, daidzein] | 27% | 37% | did not ameliorate | – | average skin fold increase [2]: seven
